“And” between values parts separate entries of the source, which are not always exact repeats. Equal values may be shown once.
Legend:
pregnancy in rats [1] = test: Termination of pregnancy in rats, compounds administered subcutaneously (Table 2); type: in vivo, rat
Method: (§1) The following tables list the results for a compound of Formula IV as compared with a control of previously known 2α-cyano-17β-hydroxy-3-oxo-4,4,17α-trimethylandrost-5-end(Cyanoketone) for termination of pregnancy.
^1 Compounds given subcutaneously in corn oil vehicle once daily on
days 10 through 13 of pregnancy. Serum for progesterone determination was
drawn on day 11 of pregnancy, 24 hours after the initial injection of
(§2) compound. The animals were autopsied on day 14 of pregnancy.
^2 Serum progesterone values determined by RIA at Interlab Associates

pregnancy in rats [2] = test: Pregnancy termination in rats, compounds administered intragastrically on day 10 of pregnancy (Table 3); type: in vivo, rat; details: autopsy day 14
Method: as §1
^1 Compounds were administered intragastrically once daily on days 10
of pregnancy in a vehicle consisting of PEG400, propylene glycol and 100
percent ethanol (50:40:10, v:v:v). Serum for progesterone determination
was drawn on day 11 of pregnancy, 24 hours after the initial injection of
as §2

[3] = 1 mg/kg/day subcutaneously days 10-13 of pregnancy, serum day 11, 24 hours after initial injection
[4] = 1 mg/kg/day subcutaneously in corn oil once daily days 10-13 of pregnancy, autopsy day 14
[5] = 2 mg/kg/day subcutaneously days 10-13 of pregnancy, serum day 11, 24 hours after initial injection
[6] = 2 mg/kg/day subcutaneously in corn oil once daily days 10-13 of pregnancy, autopsy day 14
[7] = 4 mg/kg/day subcutaneously days 10-13 of pregnancy, serum day 11, 24 hours after initial injection
[8] = 4 mg/kg/day subcutaneously in corn oil once daily days 10-13 of pregnancy, autopsy day 14
[9] = 8 mg/kg/day subcutaneously days 10-13 of pregnancy, serum day 11, 24 hours after initial injection
[10] = 8 mg/kg/day subcutaneously in corn oil once daily days 10-13 of pregnancy, autopsy day 14
[11] = 16 mg/kg/day subcutaneously days 10-13 of pregnancy, serum day 11, 24 hours after initial injection
[12] = 16 mg/kg/day subcutaneously in corn oil once daily days 10-13 of pregnancy, autopsy day 14, 16 mg/kg/day
[13] = 32 mg/kg/day subcutaneously days 10-13 of pregnancy, serum day 11, 24 hours after initial injection
[14] = 32 mg/kg/day subcutaneously in corn oil once daily days 10-13 of pregnancy, autopsy day 14
[15] = 1 mg/kg intragastrically once on day 10 of pregnancy
[16] = 2 mg/kg intragastrically once on day 10 of pregnancy
[17] = 4 mg/kg intragastrically once on day 10 of pregnancy
[18] = 8 mg/kg intragastrically once on day 10 of pregnancy

## CC1(C)C(=O)[C@H](C#N)C[C@@]2(C)C1=CC[C@@H]1[C@@H]2CC[C@@]2(C)[C@H]1CC[C@]2(C)O [Cyanoketone, 2α-cyano-17β-hydroxy-3-oxo-4,4,17α-trimethylandrost-5-end]
Pregnancy in rats [1]; [3]
  Serum Progesterone (Percent Control): 124 Percent Control
  Serum Progesterone ng/ml + S.E.: 54.1 + 2.6 ng/ml
Pregnancy in rats [1]; [4]
  Adrenal Wt. mg + SE: 83.4 + 4.0 mg
  Fetal Viability: Normal Fetuses/Implantation Sites: 80/82
  Fetal Viability: Normal Fetuses/Implantation Sites (Percent): 98%
  Number of Rats Pregnant/Number of Rats Treated: 7/7
  Number of Rats Pregnant/Number of Rats Treated (Percent): 100%
Pregnancy in rats [1]; [5]
  Serum Progesterone (Percent Control): 94 Percent Control
  Serum Progesterone ng/ml + S.E.: 40.8 + 2.2 ng/ml
Pregnancy in rats [1]; [6]
  Adrenal Wt. mg + SE: 91.6 + 4.6 mg
  Fetal Viability: Normal Fetuses/Implantation Sites: 94/103
  Fetal Viability: Normal Fetuses/Implantation Sites (Percent): 91%
  Number of Rats Pregnant/Number of Rats Treated: 8/8
  Number of Rats Pregnant/Number of Rats Treated (Percent): 100%
Pregnancy in rats [1]; [7]
  Serum Progesterone (Percent Control): 92 Percent Control
  Serum Progesterone ng/ml + S.E.: 40.0 + 3.5 ng/ml
Pregnancy in rats [1]; [8]
  Adrenal Wt. mg + SE: 93.1 + 4.0 mg
  Fetal Viability: Normal Fetuses/Implantation Sites: 27/87
  Fetal Viability: Normal Fetuses/Implantation Sites (Percent): 32%
  Number of Rats Pregnant/Number of Rats Treated: 3/6
  Number of Rats Pregnant/Number of Rats Treated (Percent): 50%
Pregnancy in rats [1]; [9]
  Serum Progesterone (Percent Control): 44 Percent Control
  Serum Progesterone ng/ml + S.E.: 22.1 + 6.0 ng/ml
Pregnancy in rats [1]; [10]
  Adrenal Wt. mg + SE: 78.8 + 3.9 mg
  Fetal Viability: Normal Fetuses/Implantation Sites: 36/119
  Fetal Viability: Normal Fetuses/Implantation Sites (Percent): 30%
  Number of Rats Pregnant/Number of Rats Treated: 5/10
  Number of Rats Pregnant/Number of Rats Treated (Percent): 50%
Pregnancy in rats [1]; [11]
  Serum Progesterone (Percent Control): 48 Percent Control
  Serum Progesterone ng/ml + S.E.: 24.3 + 7.6 ng/ml
Pregnancy in rats [1]; 16 mg/kg/day subcutaneously days 10-13 of pregnancy, serum day 11, determined by RIA at Interlab Associates (footnote 2)
  Serum Progesterone (Percent Control): 70 Percent Control
Pregnancy in rats [1]; 16 mg/kg/day subcutaneously days 10-13 of pregnancy, serum day 11, group whose values were determined by RIA at Interlab Associates (footnote 2)
  Serum Progesterone ng/ml + S.E.: 50.7 + 5.4 ng/ml
Pregnancy in rats [1]; [12]
  Adrenal Wt. mg + SE: 77.0 + 4.5 mg and 105.2 mg
  Fetal Viability: Normal Fetuses/Implantation Sites: 26/103 and 11/94
  Number of Rats Pregnant/Number of Rats Treated: 3/9 and 2/8
  Number of Rats Pregnant/Number of Rats Treated (Percent): 33% and 25%
Pregnancy in rats [1]; [13]
  Serum Progesterone (Percent Control): 70 Percent Control
  Serum Progesterone ng/ml + S.E.: 35.1 + 7.8 ng/ml
Pregnancy in rats [1]; [14]
  Adrenal Wt. mg + SE: 94.8 + 8.9 mg
  Fetal Viability: Normal Fetuses/Implantation Sites: 15/63
  Fetal Viability: Normal Fetuses/Implantation Sites (Percent): 24%
  Number of Rats Pregnant/Number of Rats Treated: 2/6
  Number of Rats Pregnant/Number of Rats Treated (Percent): 33%
Pregnancy in rats [2]; [15]
  Adrenal Wt. mg + SE: 55.8 + 4.1 mg
  Fetal Viability: Normal Fetuses/Implantation Sites: 54/56
  Fetal Viability: Normal Fetuses/Implantation Sites (Percent): 96%
  Number of Rats Pregnant/Number of Rats Treated: 5/5
  Number of Rats Pregnant/Number of Rats Treated (Percent): 100%
Pregnancy in rats [2]; [16]
  Adrenal Wt. mg + SE: 64.1 + 5.2 mg
  Fetal Viability: Normal Fetuses/Implantation Sites: 56/77
  Fetal Viability: Normal Fetuses/Implantation Sites (Percent): 72%
  Number of Rats Pregnant/Number of Rats Treated: 6/6
  Number of Rats Pregnant/Number of Rats Treated (Percent): 100%
Pregnancy in rats [2]; [17]
  Adrenal Wt. mg + SE: 75.9 + 6.1 mg
  Fetal Viability: Normal Fetuses/Implantation Sites: 46/84
  Fetal Viability: Normal Fetuses/Implantation Sites (Percent): 55%
  Number of Rats Pregnant/Number of Rats Treated: 4/7
  Number of Rats Pregnant/Number of Rats Treated (Percent): 57%
Pregnancy in rats [2]; [18]
  Fetal Viability: Normal Fetuses/Implantation Sites: 11/112
  Fetal Viability: Normal Fetuses/Implantation Sites (Percent): 10%
  Number of Rats Pregnant/Number of Rats Treated: 1/9
  Number of Rats Pregnant/Number of Rats Treated (Percent): 11%
